Measurements from patent US20220354949A1, “NOVEL COMPOUNDS” (XENIOPRO GmbH, priority 2018, published 2022).

Tested on: Notch signaling (human Notch1 receptor, hNotch1ΔE, CSL luciferase reporter in HeLa cells)
Assay: Notch reporter assay (dual luciferase, HeLa cells transfected with hNotch1ΔE)
Assay type: cell-based
Conditions: compounds and controls at 10 μM
Description: The activation level of Notch signaling can be quantified in vitro reliably by measuring the expression levels of Notch specific target genes. This can be accomplished by the quantification of corresponding mRNA or protein of a particular Notch target gene. Alternatively, cells can be genetically modified to carry a luciferase gene as an artificial Notch target gene, which is expressed in dependence of Notch activity. In this setting, Notch signaling levels can be quantified by measuring the luciferase-derived bioluminescence values.
An according Notch-reporter assay, i.e. a luciferase-based luminescence readout, was used here to quantify the ability of the claimed compounds to augment Notch signaling in a cellular system. […] After 24 hours of transfection, the transfected cells were carefully detached from the dish using 0.5 mM EDTA in PBS and seeded into 96-well plates suitable for luminescence readouts (CORNING, #3610) at 10′000 cells per well. […] Directly after the lysis, first the Firefly and then the Renilla luciferase values were measured consecutively from the same well with a luminescence reader immediately after applying 15 μL per well each of the corresponding enzyme substrates needed to create the luminescence signals (Promega, Dual-Luciferase® Reporter Assay System, #E1910). […]

Oc1ccc(C=Cc2cc(O)cc(O)c2)cc1 [RES, Resveratrol]
Activity Range: weighted arithmetic mean (AVEw) of double-normalized Notch-reporter luminescence, relative to DMSO basis level of 1.0: 1.9 ± 0.5
